Earlier results as cited in PMC2920223 (Analytical chemistry, 2010).

What was measured:
[1] = tested on: puromycin-sensitive aminopeptidases (PSA, NAP and NAP2); settings: at 20 μM puromycin
[2] = tested on: aminopeptidases (aminopeptidase N (APN), puromycin-sensitive aminopeptidase (PSA), NAP and NAP2); settings: rat
[3] = exogenous YGGFM, rat striatal slices

COc1ccc(C[C@H](N)C(=O)N[C@H]2[C@@H](O)[C@H](n3cnc4c(N(C)C)ncnc43)O[C@@H]2CO)cc1 [puromycin]
inhibition of puromycin-sensitive aminopeptidases [1]: effectively inhibited

YGGFL
cleaved bond [2]: tyrosine-Gly

YGGFM
hydrolysis at Tyr-Gly as share of the total hydrolysis [3]: about 80%
